# The NIST ThermoML archive (doi:10.1007/s10765-009-0625-z)
# ± gives the expanded uncertainty stated by the source.
# Experiment: xn = mol fraction of the nth substance listed
# Details: Liquid
smiles,measurement,setting,value
c1ccc2[nH]ccc2c1 [1H-indole] + Cc1ccc2ccccc2c1,specific volume,"293.15 K, 100 kPa, x1 = 0.25",0.0009744 ± 7e-07 m3/kg
same,specific volume,"293.15 K, 100 kPa, x1 = 0.5",0.0009522 ± 7e-07 m3/kg
same,specific volume,"303.15 K, 100 kPa, x1 = 0.25",0.0009821 ± 9e-07 m3/kg
same,specific volume,"303.15 K, 100 kPa, x1 = 0.5",0.0009621 ± 9e-07 m3/kg
same,specific volume,"303.15 K, 100 kPa, x1 = 0.75",0.0009406 ± 8e-07 m3/kg
same,specific volume,"313.15 K, 100 kPa, x1 = 0.25",0.0009893 ± 1e-06 m3/kg
same,specific volume,"313.15 K, 100 kPa, x1 = 0.5",0.0009692 ± 1e-06 m3/kg
same,specific volume,"313.15 K, 100 kPa, x1 = 0.75",0.0009471 ± 1e-06 m3/kg
same,specific volume,"323.15 K, 100 kPa, x1 = 0.25",0.0009968 ± 1.2e-06 m3/kg
same,specific volume,"323.15 K, 100 kPa, x1 = 0.5",0.0009765 ± 1.2e-06 m3/kg
same,specific volume,"323.15 K, 100 kPa, x1 = 0.75",0.0009539 ± 1.1e-06 m3/kg
same,specific volume,"323.15 K, 100 kPa, x1 = 1",0.0009295 ± 1.1e-06 m3/kg
same,specific volume,"333.15 K, 100 kPa, Constant-volume piezometry, x1 = 0.25",0.001005 ± 3e-07 m3/kg
same,specific volume,"333.15 K, 100 kPa, Constant-volume piezometry, x1 = 0.5",0.0009836 ± 3e-07 m3/kg
same,specific volume,"333.15 K, 100 kPa, Constant-volume piezometry, x1 = 0.75",0.0009609 ± 3e-07 m3/kg
same,specific volume,"333.15 K, 100 kPa, Constant-volume piezometry, x1 = 1",0.000936 ± 3e-07 m3/kg
same,specific volume,"333.15 K, 100 kPa, x1 = 0.25",0.001005 ± 1.3e-06 m3/kg
same,specific volume,"333.15 K, 100 kPa, x1 = 0.5",0.0009836 ± 1.3e-06 m3/kg
same,specific volume,"333.15 K, 100 kPa, x1 = 0.75",0.0009609 ± 1.3e-06 m3/kg
same,specific volume,"333.15 K, 100 kPa, x1 = 1",0.000936 ± 1.2e-06 m3/kg
same,specific volume,"333.15 K, 10000 kPa, Constant-volume piezometry, x1 = 0.25",0.0009988 ± 3e-07 m3/kg
same,specific volume,"333.15 K, 10000 kPa, Constant-volume piezometry, x1 = 0.5",0.0009782 ± 3e-07 m3/kg
same,specific volume,"333.15 K, 10000 kPa, Constant-volume piezometry, x1 = 0.75",0.000956 ± 3e-07 m3/kg
same,specific volume,"333.15 K, 10000 kPa, Constant-volume piezometry, x1 = 1",0.0009315 ± 3e-07 m3/kg
same,specific volume,"333.15 K, 20000 kPa, Constant-volume piezometry, x1 = 0.25",0.000993 ± 3e-07 m3/kg
same,specific volume,"333.15 K, 20000 kPa, Constant-volume piezometry, x1 = 0.5",0.000973 ± 3e-07 m3/kg
same,specific volume,"333.15 K, 20000 kPa, Constant-volume piezometry, x1 = 0.75",0.0009513 ± 3e-07 m3/kg
same,specific volume,"333.15 K, 20000 kPa, Constant-volume piezometry, x1 = 1",0.0009273 ± 3e-07 m3/kg
same,specific volume,"333.15 K, 30000 kPa, Constant-volume piezometry, x1 = 0.25",0.0009876 ± 4e-07 m3/kg
same,specific volume,"333.15 K, 30000 kPa, Constant-volume piezometry, x1 = 0.5",0.0009679 ± 4e-07 m3/kg
same,specific volume,"333.15 K, 30000 kPa, Constant-volume piezometry, x1 = 0.75",0.0009467 ± 4e-07 m3/kg
same,specific volume,"333.15 K, 30000 kPa, Constant-volume piezometry, x1 = 1",0.0009228 ± 4e-07 m3/kg
same,specific volume,"333.15 K, 40000 kPa, Constant-volume piezometry, x1 = 0.25",0.0009824 ± 5e-07 m3/kg
same,specific volume,"333.15 K, 40000 kPa, Constant-volume piezometry, x1 = 0.5",0.0009633 ± 4e-07 m3/kg
same,specific volume,"333.15 K, 40000 kPa, Constant-volume piezometry, x1 = 0.75",0.0009422 ± 4e-07 m3/kg
same,specific volume,"333.15 K, 40000 kPa, Constant-volume piezometry, x1 = 1",0.0009192 ± 4e-07 m3/kg
same,specific volume,"333.15 K, 50000 kPa, Constant-volume piezometry, x1 = 0.25",0.0009776 ± 5e-07 m3/kg
same,specific volume,"333.15 K, 50000 kPa, Constant-volume piezometry, x1 = 0.5",0.0009586 ± 5e-07 m3/kg
same,specific volume,"333.15 K, 50000 kPa, Constant-volume piezometry, x1 = 0.75",0.0009379 ± 5e-07 m3/kg
same,specific volume,"333.15 K, 50000 kPa, Constant-volume piezometry, x1 = 1",0.0009157 ± 5e-07 m3/kg
same,specific volume,"333.15 K, 60000 kPa, Constant-volume piezometry, x1 = 0.25",0.0009732 ± 6e-07 m3/kg
same,specific volume,"333.15 K, 60000 kPa, Constant-volume piezometry, x1 = 0.5",0.0009544 ± 6e-07 m3/kg
same,specific volume,"333.15 K, 60000 kPa, Constant-volume piezometry, x1 = 0.75",0.0009341 ± 6e-07 m3/kg
same,specific volume,"333.15 K, 70000 kPa, Constant-volume piezometry, x1 = 0.25",0.0009685 ± 6e-07 m3/kg
same,specific volume,"333.15 K, 70000 kPa, Constant-volume piezometry, x1 = 0.5",0.0009504 ± 6e-07 m3/kg
same,specific volume,"333.15 K, 70000 kPa, Constant-volume piezometry, x1 = 0.75",0.0009304 ± 6e-07 m3/kg
same,specific volume,"333.15 K, 80000 kPa, Constant-volume piezometry, x1 = 0.25",0.0009645 ± 7e-07 m3/kg
same,specific volume,"333.15 K, 80000 kPa, Constant-volume piezometry, x1 = 0.5",0.0009464 ± 7e-07 m3/kg
same,specific volume,"333.15 K, 80000 kPa, Constant-volume piezometry, x1 = 0.75",0.0009267 ± 7e-07 m3/kg
same,specific volume,"333.15 K, 90000 kPa, Constant-volume piezometry, x1 = 0.25",0.0009607 ± 8e-07 m3/kg
same,specific volume,"333.15 K, 90000 kPa, Constant-volume piezometry, x1 = 0.5",0.0009427 ± 8e-07 m3/kg
same,specific volume,"333.15 K, 90000 kPa, Constant-volume piezometry, x1 = 0.75",0.0009233 ± 8e-07 m3/kg
same,specific volume,"333.15 K, 100000 kPa, Constant-volume piezometry, x1 = 0.25",0.0009569 ± 9e-07 m3/kg
same,specific volume,"333.15 K, 100000 kPa, Constant-volume piezometry, x1 = 0.5",0.0009391 ± 8e-07 m3/kg
same,specific volume,"333.15 K, 100000 kPa, Constant-volume piezometry, x1 = 0.75",0.0009198 ± 8e-07 m3/kg
same,specific volume,"333.15 K, 110000 kPa, Constant-volume piezometry, x1 = 0.25",0.0009533 ± 9e-07 m3/kg
same,specific volume,"333.15 K, 110000 kPa, Constant-volume piezometry, x1 = 0.5",0.0009358 ± 9e-07 m3/kg
same,specific volume,"333.15 K, 110000 kPa, Constant-volume piezometry, x1 = 0.75",0.0009167 ± 9e-07 m3/kg
same,specific volume,"333.15 K, 120000 kPa, Constant-volume piezometry, x1 = 0.25",0.0009497 ± 1e-06 m3/kg
same,specific volume,"333.15 K, 120000 kPa, Constant-volume piezometry, x1 = 0.5",0.0009325 ± 1e-06 m3/kg
same,specific volume,"333.15 K, 120000 kPa, Constant-volume piezometry, x1 = 0.75",0.0009134 ± 1e-06 m3/kg
same,specific volume,"333.15 K, 130000 kPa, Constant-volume piezometry, x1 = 0.25",0.0009464 ± 1.1e-06 m3/kg
same,specific volume,"333.15 K, 130000 kPa, Constant-volume piezometry, x1 = 0.5",0.0009292 ± 1e-06 m3/kg
same,specific volume,"333.15 K, 130000 kPa, Constant-volume piezometry, x1 = 0.75",0.0009104 ± 1e-06 m3/kg
same,specific volume,"333.15 K, 140000 kPa, Constant-volume piezometry, x1 = 0.25",0.0009432 ± 1.1e-06 m3/kg
same,specific volume,"333.15 K, 140000 kPa, Constant-volume piezometry, x1 = 0.5",0.0009262 ± 1.1e-06 m3/kg
same,specific volume,"333.15 K, 140000 kPa, Constant-volume piezometry, x1 = 0.75",0.0009077 ± 1.1e-06 m3/kg
same,specific volume,"333.15 K, 150000 kPa, Constant-volume piezometry, x1 = 0.25",0.00094 ± 1.2e-06 m3/kg
same,specific volume,"333.15 K, 150000 kPa, Constant-volume piezometry, x1 = 0.5",0.0009231 ± 1.2e-06 m3/kg
same,specific volume,"333.15 K, 150000 kPa, Constant-volume piezometry, x1 = 0.75",0.0009048 ± 1.2e-06 m3/kg
same,specific volume,"333.15 K, 160000 kPa, Constant-volume piezometry, x1 = 0.25",0.0009369 ± 1.3e-06 m3/kg
same,specific volume,"333.15 K, 160000 kPa, Constant-volume piezometry, x1 = 0.5",0.0009202 ± 1.3e-06 m3/kg
same,specific volume,"333.15 K, 160000 kPa, Constant-volume piezometry, x1 = 0.75",0.000902 ± 1.2e-06 m3/kg
same,specific volume,"333.15 K, 170000 kPa, Constant-volume piezometry, x1 = 0.25",0.000934 ± 1.3e-06 m3/kg
same,specific volume,"333.15 K, 170000 kPa, Constant-volume piezometry, x1 = 0.5",0.0009174 ± 1.3e-06 m3/kg
same,specific volume,"333.15 K, 180000 kPa, Constant-volume piezometry, x1 = 0.5",0.0009148 ± 1.4e-06 m3/kg
same,specific volume,"333.15 K, 190000 kPa, Constant-volume piezometry, x1 = 0.5",0.0009122 ± 1.5e-06 m3/kg
same,specific volume,"333.15 K, 200000 kPa, Constant-volume piezometry, x1 = 0.5",0.0009095 ± 1.5e-06 m3/kg
same,specific volume,"333.15 K, 210000 kPa, Constant-volume piezometry, x1 = 0.5",0.000907 ± 1.6e-06 m3/kg
same,specific volume,"333.15 K, 220000 kPa, Constant-volume piezometry, x1 = 0.5",0.0009047 ± 1.6e-06 m3/kg
same,specific volume,"333.15 K, 230000 kPa, Constant-volume piezometry, x1 = 0.5",0.0009023 ± 1.7e-06 m3/kg
same,specific volume,"333.15 K, 240000 kPa, Constant-volume piezometry, x1 = 0.5",0.0008999 ± 1.8e-06 m3/kg
same,specific volume,"333.15 K, 250000 kPa, Constant-volume piezometry, x1 = 0.5",0.0008977 ± 1.8e-06 m3/kg
same,specific volume,"333.15 K, 260000 kPa, Constant-volume piezometry, x1 = 0.5",0.0008956 ± 1.9e-06 m3/kg
same,specific volume,"333.15 K, 270000 kPa, Constant-volume piezometry, x1 = 0.5",0.0008934 ± 2e-06 m3/kg
same,specific volume,"343.15 K, 100 kPa, x1 = 0.25",0.001013 ± 1.5e-06 m3/kg
same,specific volume,"343.15 K, 100 kPa, x1 = 0.5",0.0009909 ± 1.4e-06 m3/kg
same,specific volume,"343.15 K, 100 kPa, x1 = 0.75",0.0009674 ± 1.4e-06 m3/kg
same,specific volume,"343.15 K, 100 kPa, x1 = 1",0.0009428 ± 1.4e-06 m3/kg
same,specific volume,"353.15 K, 100 kPa, x1 = 0.25",0.00102 ± 1.6e-06 m3/kg
same,specific volume,"353.15 K, 100 kPa, x1 = 0.5",0.0009983 ± 1.6e-06 m3/kg
same,specific volume,"353.15 K, 100 kPa, x1 = 0.75",0.0009747 ± 1.6e-06 m3/kg
same,specific volume,"353.15 K, 100 kPa, x1 = 1",0.0009499 ± 1.5e-06 m3/kg
